Earlier results, collected in paper PMC10011554, “BET inhibitor trotabresib in heavily pretreated patients with solid tumors and diffuse large B-cell lymphomas” (Nature Communications, 2023).
Like-named read-outs stand apart in the source and are kept apart here.

What was measured:
[1] = system: MYC gene expression in Raji Burkitt's lymphoma cells; parameters: method as in Investigator's Brochure; conditions: ref Investigator's Brochure, read-out: mean IC50, inhibition of MYC gene expression; cited from earlier work
SU-DHL-4 (GCB DLBCL) = system: SU-DHL-4 (GCB DLBCL); parameters: method as in Report CC-90010-Pharm-1018; conditions: read-out: absolute IC50, proliferation, cited from earlier work
U-2932 (DOX-R) = system: U-2932 (DOX-R); parameters: method as in Report CC-90010-Pharm-1018; conditions: Table 2, ref Report CC-90010-Pharm-1018, read-out: absolute IC50, proliferation; cited from earlier work
[2] = parameters: method as in Investigator's Brochure; conditions: 2 hours postdose, ref Investigator's Brochure, cited from earlier work
COH70 TNBC PDX = system: COH70 TNBC PDX; parameters: method as in Unpublished data from Celgene Corporation; conditions: Day 38, ref Unpublished data from Celgene Corporation, cited from earlier work
P-gp = system: P-gp; parameters: method as in Investigator's Brochure; conditions: ref Investigator's Brochure, read-out: IC50, transporter inhibition; cited from earlier work
OATP1B1 = system: OATP1B1; parameters: method as in Investigator's Brochure; conditions: OATP1B1, ref Investigator's Brochure; read-out: IC50, transporter inhibition; cited from earlier work

Structure (SMILES): Cn1cc(-c2cc(S(C)(=O)=O)ccc2OCC2CC2)c2ccccc2c1=O [trotabresib]
- IC50 [1]: 60 nM
- IC50 (SU-DHL-4 (GCB DLBCL); SU-DHL-4, Experiment 1, ref Report CC-90010-Pharm-1018): 160 nM
- IC50 (SU-DHL-4 (GCB DLBCL); SU-DHL-4, Table 2, ref Report CC-90010-Pharm-1018): 304 nM
- IC50 (U-2932 (DOX-R)): 348 nM
- maximally-measured tumor level ([2]; COH70, 2 mg/kg): 1.3 ± 0.3 µM
- maximally-measured tumor level ([2]; COH70, 10 mg/kg): 6.7 ± 1.7 µM
- mean percent TGI (COH70 TNBC PDX; COH70, 12.5 mg/kg/dose PO QD 3 days on/4 days off): 64%
- mean percent TGI (COH70 TNBC PDX; COH70, 16 mg/kg/dose PO QD 3 days on/4 days off): 68%
- mean percent TGI (COH70 TNBC PDX; COH70, 20 mg/kg/dose PO QD 3 days on/4 days off): 72%
- IC50 (P-gp): 2000 nM
- IC50 (OATP1B1): 4940 nM
